Experimental data: ChEMBL document CHEMBL3751734, “Late-stage optimization of a tercyclic class of S1P3-sparing, S1P1 receptor agonists” (Bioorg Med Chem Lett, 2016)
≈ marks a conversion by molar mass, not a printed value.

Tests used:
[1] = Kinetic solubility of the compound in buffer at pH 7.4 after 16 to 19 hrs by UV absorbance assay; type: physicochemical; details: read-out: Kinetic_solubility
[2] = target: Sphingosine 1-phosphate receptor 1 (Homo sapiens, UniProt P21453); test: Agonist activity at human S1P1 receptor expressed in EDG1-bla U2OS cells incubated for 18 hrs prior to GenBlazer substrate addition by beta-arrestin recruitment assay; type: cell-based
Chain of Sphingosine 1-phosphate receptor 1 (P21453 whole entry): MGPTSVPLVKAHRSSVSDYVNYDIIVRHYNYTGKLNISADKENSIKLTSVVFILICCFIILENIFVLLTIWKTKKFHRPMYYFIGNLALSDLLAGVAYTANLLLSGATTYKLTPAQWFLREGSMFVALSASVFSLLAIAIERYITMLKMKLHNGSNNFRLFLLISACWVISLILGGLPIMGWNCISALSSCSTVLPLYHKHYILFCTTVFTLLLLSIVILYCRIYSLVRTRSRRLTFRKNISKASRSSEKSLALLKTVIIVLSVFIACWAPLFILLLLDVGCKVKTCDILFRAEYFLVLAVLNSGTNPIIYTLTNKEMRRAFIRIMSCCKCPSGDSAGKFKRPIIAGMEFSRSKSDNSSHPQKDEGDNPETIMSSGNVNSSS

[3] = target: Sphingosine 1-phosphate receptor 3 (Homo sapiens, UniProt Q99500); test: Agonist activity at human S1P3 receptor expressed in EDG3-bla U2OS cells incubated for 18 hrs prior to GenBlazer substrate addition by beta-arrestin recruitment assay; type: cell-based
Chain of Sphingosine 1-phosphate receptor 3 (Q99500 whole entry): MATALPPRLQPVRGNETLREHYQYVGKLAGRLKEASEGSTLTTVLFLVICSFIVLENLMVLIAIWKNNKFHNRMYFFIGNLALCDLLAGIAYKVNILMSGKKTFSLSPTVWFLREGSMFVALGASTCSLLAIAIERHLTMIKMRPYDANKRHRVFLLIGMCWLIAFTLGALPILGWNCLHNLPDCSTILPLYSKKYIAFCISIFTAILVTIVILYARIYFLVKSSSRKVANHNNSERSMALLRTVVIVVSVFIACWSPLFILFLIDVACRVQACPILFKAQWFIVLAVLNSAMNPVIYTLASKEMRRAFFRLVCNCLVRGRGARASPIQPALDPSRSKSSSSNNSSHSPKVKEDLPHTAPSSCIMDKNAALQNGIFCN

[4] = Equilibrium solubility of the compound in citric acid monohydrate/Na2HPO4 dihydrate buffer at pH 6.8 after 24 hrs by RP-HPLC analysis; type: physicochemical
[5] = target: Sphingosine 1-phosphate receptor 5 (Homo sapiens, UniProt Q9H228); test: Agonist activity at human S1P5 receptor expressed in EDG8-bla U2OS cells incubated for 18 hrs prior to GenBlazer substrate addition by beta-arrestin recruitment assay; type: cell-based
Chain of Sphingosine 1-phosphate receptor 5 (Q9H228 whole entry): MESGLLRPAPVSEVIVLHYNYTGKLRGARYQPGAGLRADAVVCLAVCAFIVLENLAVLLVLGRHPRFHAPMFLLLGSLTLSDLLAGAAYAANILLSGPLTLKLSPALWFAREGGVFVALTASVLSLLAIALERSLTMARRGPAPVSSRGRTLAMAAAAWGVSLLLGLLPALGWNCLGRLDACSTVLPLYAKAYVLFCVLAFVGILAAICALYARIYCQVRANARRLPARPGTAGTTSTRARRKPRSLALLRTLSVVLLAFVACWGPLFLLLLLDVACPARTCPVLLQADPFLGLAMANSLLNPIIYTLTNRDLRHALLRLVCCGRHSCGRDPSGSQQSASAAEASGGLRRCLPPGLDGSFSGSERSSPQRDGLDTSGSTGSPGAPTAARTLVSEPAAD

Homo sapiens = species: Homo sapiens; test: Selectivity ratio of EC50 for human S1P5 receptor to EC50 for human S1P1 receptor
[6] = Ratio of drug level in brain to plasma (unknown origin); type: ADME, cell-free; details: read-out: BPR
HepG2 = test: Toxicity in human HepG2 cells assessed as phospholipidosis at 0.1 to 200 uM after 48 hrs by Hoechst […] staining-based lipidTOX assay; type: cell-based; details: hepg2, 48 h

Compound	solubility kinetic [1] [µg/mL]	EC50 [2] [nM]	further results
Cc1nc(-c2nc(-c3cc(F)c(OC[C@H](N)CO)cc3Cl)no2)ccc1OC(C)C	8 (≈ 18.3 µM)	49	
Cc1cc(-c2nnc(-c3cc(F)c(OC[C@H](N)CO)cc3Cl)s2)cc(NC(C)C)n1	9 (≈ 19.9 µM)	18	
CC(C)Oc1ccc(-c2nnc(-c3cc(F)c(OC[C@H](N)CO)cc3Cl)s2)cc1Cl	< 0.1	32	EC50 [3]: > 10000 nM
Cc1nc(CC(C)C)cc(-c2nc(-c3cc(F)c(O[C@@H]4CCC(=O)N(C)C4)cc3Cl)no2)n1	26 (≈ 54.9 µM)	32	solubility thermodynamic at 24 h [4]: 10 µg/mL (≈ 21.1 µM); EC50 [5]: 215 nM; Ratio EC50 (Homo sapiens): 7; Kp [6]: 0.1; EC50 [3]: > 10000 nM
Cc1cc(-c2nnc(-c3cc(F)c(OC[C@H](N)CO)cc3Cl)s2)cc(CC(C)C)n1	25 (≈ 55.4 µM)	0.8	
Cc1cc(-c2nc(-c3cc(F)c(O[C@H]4CCC(=O)NC4)cc3Cl)no2)cc(NC(C)C)n1	0.1 (≈ 0.217 µM)	0.2	
Cc1nc(-c2nnc(-c3cc(F)c(OC[C@H](N)CO)cc3Cl)s2)ccc1OC(C)C	< 0.1	105	
Cc1cc(-c2nnc(-c3cc(F)c(O[C@H]4CCC(=O)NC4)cc3Cl)s2)cc(NC(C)C)n1	0.8 (≈ 1.68 µM)	160	
CCCCCCCCc1ccc(CCC(N)(CO)CO)cc1 [FINGOLIMOD]			EC50 [3]: > 10000 nM
Cc1cc(-c2nc(-c3cc(F)c(OC[C@H]4OCC[C@@H]4O)cc3Cl)no2)cc(NC(C)C)n1	0.1 (≈ 0.216 µM)	6	
Cc1cc(-c2nc(-c3cc(F)c(OC[C@H]4CNC(=O)CO4)cc3Cl)no2)cc(NC(C)C)n1	0.1 (≈ 0.21 µM)	14	
CC(C)Oc1ncc(-c2nnc(-c3cc(F)c(OC[C@H](N)CO)cc3Cl)s2)cc1C#N	< 0.1	13	
Cc1cc(-c2nc(-c3cc(F)c(OC[C@H](N)CO)cc3Cl)no2)cc(CC(C)C)n1		20	
Cc1cc(-c2nc(-c3cc(C)c(OC[C@@H]4CCC(=O)N4)c(C)n3)no2)cc(CC(C)C)n1	> 40	11	solubility thermodynamic at 24 h [4]: 21 µg/mL (≈ 48.2 µM); EC50 [5]: 340 nM; Ratio EC50 (Homo sapiens): 7; EC50 [3]: > 10000 nM
Cc1cc(-c2nc(-c3cc(F)c(OC[C@H]4COC(=O)N4)cc3Cl)no2)cc(NC(C)C)n1	0.1 (≈ 0.217 µM)	0.6	Activity (HepG2): Non-toxic
Cc1cc(-c2nnc(-c3cc(F)c(OC[C@H]4CNC(=O)CO4)cc3Cl)s2)cc(NC(C)C)n1	0.8 (≈ 1.63 µM)	550	
Cc1cc(-c2nnc(-c3cc(F)c(O[C@@H]4CNC(=O)C4)cc3Cl)s2)cc(NC(C)C)n1	0.6 (≈ 1.3 µM)	560	
CC(C)Oc1ncc(-c2nc(-c3cc(F)c(OC[C@H](N)CO)cc3Cl)no2)cc1C#N	< 0.1	0.5	
Cc1cc(-c2nnc(-c3cc(F)c(OC[C@H](N)CO)cc3Cl)s2)cc(OC(C)C)n1	< 0.1	130	
CC(C)Cc1ccc(-c2nc(-c3ccc([C@@H](C)N[C@H]4C[C@@H](C(=O)O)C4)cc3)no2)cc1		1.9	EC50 [3]: > 10000 nM
Cc1cc(-c2nc(-c3ccc(O[C@H]4CCC(=O)NC4)c(C)n3)no2)cc(NC(C)C)n1	> 40	42	solubility thermodynamic at 24 h [4]: 12 µg/mL (≈ 28.4 µM); EC50 [5]: 350 nM; Ratio EC50 (Homo sapiens): 7; EC50 [3]: > 10000 nM
Cc1cc(-c2nnc(-c3cc(F)c(O[C@@H]4CCC(=O)NC4)cc3Cl)s2)cc(NC(C)C)n1	1 (≈ 2.1 µM)	300	
Cc1cc(-c2nc(-c3cc(F)c(OC[C@H]4CCC(=O)N4)cc3Cl)no2)cc(NC(C)C)n1	0.1 (≈ 0.217 µM)	0.8	
CC(C)Oc1ccc(-c2nc(-c3cc(F)c(OC[C@H](N)CO)cc3Cl)no2)cc1C#N	< 0.1	0.1	
Cc1cc(-c2nc(-c3ccc(OC[C@H]4COC(=O)N4)nc3)no2)cc(NC(C)C)n1	0.3 (≈ 0.731 µM)	7.3	
Cc1cc(-c2nc(-c3cnc(OC[C@H]4COC(=O)N4)c(C)n3)no2)cc(NC(C)C)n1	2 (≈ 4.7 µM)	2.5	
Cc1cc(-c2nc(-c3ccc(OC[C@H]4COC(=O)N4)c(F)c3)no2)cc(NC(C)C)n1	0.1 (≈ 0.234 µM)	0.5	

Compound	solubility kinetic [1] [µg/mL]	EC50 [2] [nM]	further results
CC(=O)N1CCOC[C@@H]1COc1cc(Cl)c(-c2nnc(-c3cc(C)nc(NC(C)C)c3)s2)cc1F	1 (≈ 1.92 µM)	310	
Cc1cc(-c2nc(-c3cc(F)c(OC[C@H](N)CO)cc3Cl)no2)cc(OC(C)C)n1	0.2 (≈ 0.458 µM)	67	
CCOc1ncc(-c2nc(-c3cc(F)c(OC[C@H](N)CO)cc3Cl)no2)cc1Cl	< 0.1	62	
Cc1cc(-c2nc(-c3cc(F)c(O[C@@H]4CNC(=O)C4)cc3Cl)no2)cc(NC(C)C)n1	0.1 (≈ 0.224 µM)	3.5	
CCOc1ncc(-c2nnc(-c3cc(F)c(OC[C@H](N)CO)cc3Cl)s2)cc1Cl	< 0.1	594	
Cc1nc(CC(C)C)cc(-c2nc(-c3ccc(O[C@@H]4CCC(=O)NC4)c(F)c3)no2)n1	> 40	50	solubility thermodynamic at 24 h [4]: 27 µg/mL (≈ 63.5 µM); EC50 [5]: 360 nM; Ratio EC50 (Homo sapiens): 7; Kp [6]: 0.1; EC50 [3]: > 10000 nM
CC(C)Oc1ncc(-c2nnc(-c3cc(F)c(OC[C@H](N)CO)cc3Cl)s2)cc1Cl	< 0.1	100	
Cc1cc(-c2nc(-c3cnc(OC[C@H]4COC(=O)N4)cn3)no2)cc(NC(C)C)n1	25 (≈ 60.8 µM)	150	
Cc1cc(-c2nnc(-c3cc(F)c(OC[C@H]4CCC(=O)N4)cc3Cl)s2)cc(NC(C)C)n1	0.9 (≈ 1.89 µM)	330	
Cc1cc(-c2nnc(-c3cc(F)c(OC[C@H]4COC(=O)N4)cc3Cl)s2)cc(NC(C)C)n1	0.3 (≈ 0.628 µM)	86	
CCCCCCCCCCCCC/C=C/[C@@H](O)[C@@H](N)COP(=O)(O)O		2.8	EC50 [3]: 79 nM
Cc1cc(-c2nc(-c3ccc(OC[C@H]4COC(=O)N4)c(C)n3)no2)cc(CC(C)C)n1	> 40	37	
Cc1cc(-c2nc(-c3ccc(OC[C@H]4COC(=O)N4)c(C)n3)no2)cc(NC(C)C)n1	17 (≈ 40.1 µM)	7.9	
Cc1cc(-c2nc(-c3cc(F)c(O[C@@H]4CCC(=O)NC4)cc3Cl)no2)cc(NC(C)C)n1	0.1 (≈ 0.217 µM)	0.8	
Cc1cc(-c2nnc(-c3cc(F)c(OC[C@H]4OCC[C@@H]4O)cc3Cl)s2)cc(NC(C)C)n1	0.9 (≈ 1.88 µM)	250	
CC(C)Oc1ncc(-c2nc(-c3cc(F)c(OC[C@H](N)CO)cc3Cl)no2)cc1Cl	< 0.1	13	
Cc1cc(-c2nc(-c3cc(F)c(OC[C@H](N)CO)cc3Cl)no2)cc(NC(C)C)n1	0.3 (≈ 0.688 µM)	4	
CC(=O)N1CCOC[C@@H]1COc1cc(Cl)c(-c2noc(-c3cc(C)nc(NC(C)C)c3)n2)cc1F	0.1 (≈ 0.198 µM)	4.1	
Cc1cc(-c2nc(-c3cc(C)c(OC[C@H]4COC(=O)N4)cn3)no2)cc(NC(C)C)n1	0.2 (≈ 0.471 µM)	18	
Cc1cc(-c2nnc(-c3cc(F)c(O[C@H]4COC[C@H]4O)cc3Cl)s2)cc(NC(C)C)n1 (racemic)	0.2 (≈ 0.43 µM)	147	
CC(C)Oc1ccc(-c2nc(-c3cc(F)c(OC[C@H](N)CO)cc3Cl)no2)cc1Cl	< 0.1	4.1	EC50 [3]: > 10000 nM
Cc1cc(-c2nc(-c3cnc(OC[C@H]4COC(=O)N4)c(C)c3)no2)cc(CC(C)C)n1	0.9 (≈ 2.13 µM)	1.4	
Cc1cc(-c2nc(-c3cc(C)c(OC[C@H]4COC(=O)N4)cn3)no2)cc(CC(C)C)n1	23 (≈ 54.3 µM)	63	
Cc1cc(-c2nc(-c3cnc(OC[C@H]4COC(=O)N4)cn3)no2)cc(CC(C)C)n1	27 (≈ 65.8 µM)	200	
Cc1cc(-c2nc(-c3ccc(OC[C@H]4COC(=O)N4)cc3)no2)cc(NC(C)C)n1	0.1 (≈ 0.244 µM)	2.8	
Cc1cc(-c2nc(-c3cc(F)c(O[C@H]4COC[C@H]4O)cc3Cl)no2)cc(NC(C)C)n1 (racemic)	0.1 (≈ 0.223 µM)	0.8	
Cc1cc(-c2nc(-c3ccc(OC[C@H]4COC(=O)N4)cn3)no2)cc(NC(C)C)n1	0.9 (≈ 2.19 µM)	120	
